Reference: US7534742B2, “Isoprenoid biosynthesis” (priority 1999, dated 2009)

Target: T1, YgbP (Escherichia coli, UniProt Q46893)
T1 construct: made in house; host or cells: E. coli XL1-Blue, plasmid pNCOygbP (vector pNCO113)
Experiment: Screening of 4-diphosphocytidyl-2C-methyl-D-erythritol synthase by spectrophotometric method (coupled pyrophosphate/NADP+ assay, 340 nm)
Format: biochemical, E. coli
Details: 37° C.
Description: Recombinant 4-diphosphocytidyl-2C-methyl-D-erythritol synthase is tested by a spectrophotometric assay at 340 nm, in which the inorganic pyrophosphate formed from 2-C-methyl-D-erythritol 4-phosphate and CTP is used in a cascade of downstream reactions leading to the reduction of NADP^+. Reactions mixtures contained 50 mM Tris hydrochloride pH 8.0, 200 μM 2C-methyl-D-erythritol 4-phosphate, 200 μM CTP, 5 mM MgCl2, 1 mM DTT, 1 μM glucose 1,6-biphosphate, 500 μM UDP-Glucose, 174 μM NADP^+, 0.125 U of UDP-glucose pyrophosphorylase, 0.16 U of phosphoglucomutase, and 1 U of glucose 6-phosphate deydrogenase, various concentrations of D-erythritol 4-phosphate respectively D-ribitol 5-phosphate as shown in Table 4 and 10 μl of enzyme in a total volume of 1 ml. One unit of enzyme activity is defined as the amount of enzyme catalyzing the conversion of 1 μmol of substrate per min at 37° C.

[1] = test compound concentration 0.2 mM
[2] = test compound concentration 0.4 mM
[3] = test compound concentration 0.8 mM
[4] = test compound concentration 1.6 mM
[5] = test compound concentration 3.2 mM

T1 sequence (Q46893 2-236): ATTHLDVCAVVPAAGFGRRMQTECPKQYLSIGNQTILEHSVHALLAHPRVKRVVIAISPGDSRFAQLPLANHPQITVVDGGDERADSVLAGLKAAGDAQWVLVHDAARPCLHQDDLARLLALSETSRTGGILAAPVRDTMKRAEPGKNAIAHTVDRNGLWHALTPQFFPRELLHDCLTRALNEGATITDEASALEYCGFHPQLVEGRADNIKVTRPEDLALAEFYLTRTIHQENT

Compound | specific activity [1] | specific activity (% of activity at 0 mM test compound) [1] | specific activity [2] | specific activity (% of activity at 0 mM test compound) [2] | specific activity [3] | specific activity (% of activity at 0 mM test compound) [3] | specific activity [4] | specific activity (% of activity at 0 mM test compound) [4] | specific activity [5] | specific activity (% of activity at 0 mM test compound) [5]
O=P(O)(O)OC[C@@H](O)[C@@H](O)CO [D-erythritol 4-phosphate] | 15.9 µmol/min/mg | 92% | 15.9 µmol/min/mg | 92% | 12.9 µmol/min/mg | 75% | 5.9 µmol/min/mg | 34% | 0 (0%) μmol min^−1 mg^−1 | 0 (0%)
O=P(O)(O)OC[C@@H](O)[C@@H](O)[C@@H](O)CO [D-ribitol 5-phosphate] | 16.5 µmol/min/mg | 102% | – | – | – | – | 16.9 µmol/min/mg | 105% | – | –
